Test system: T1, extracellular α-galactosidase from Trichoderma sp. (WF-3)
T1 construct: gene agl1; native secreted enzyme, unpurified culture filtrate
Experiment: p-nitrophenol release at […] nm, Lineweaver-Burk plot
Format: biochemical
Settings: culture filtrate (unpurified); standard assay 0.05 M sodium acetate pH 5.0, 50 °C, 10 min; 0.05-4.5 mM substrate; read-out: apparent K m

With O=[N+]([O-])c1ccc(O[C@H]2O[C@H](CO)[C@H](O)[C@H](O)[C@H]2O)cc1 [pNPGal, p-nitrophenyl-α-D-galactopyranoside] as the compound, how does the Km read?
The Km was 500 µM.
